Results taken from PMC9319549, “Synthesis and Biological Evaluation of Imadazo[1,2-a]pyrazines as Anticancer and Antiviral Agents through Inhibition of CDK9 and Human Coronavirus” (Pharmaceuticals, 2022).
Read-outs that look alike come from different tables or passages of the source.

Assays:
CDK9 [1] = molecular target: T1, CDK9 (Homo sapiens, UniProt P50750); assay: biochemical; conditions: biochemical assay; mean ± standard deviation of three individual experiments; read-out: CDK9 Inhibitory Activity IC50
T1 construct: purchased BPS Biosciences (San Diego, CA, USA) 79628
T1 sequence (P50750 whole entry): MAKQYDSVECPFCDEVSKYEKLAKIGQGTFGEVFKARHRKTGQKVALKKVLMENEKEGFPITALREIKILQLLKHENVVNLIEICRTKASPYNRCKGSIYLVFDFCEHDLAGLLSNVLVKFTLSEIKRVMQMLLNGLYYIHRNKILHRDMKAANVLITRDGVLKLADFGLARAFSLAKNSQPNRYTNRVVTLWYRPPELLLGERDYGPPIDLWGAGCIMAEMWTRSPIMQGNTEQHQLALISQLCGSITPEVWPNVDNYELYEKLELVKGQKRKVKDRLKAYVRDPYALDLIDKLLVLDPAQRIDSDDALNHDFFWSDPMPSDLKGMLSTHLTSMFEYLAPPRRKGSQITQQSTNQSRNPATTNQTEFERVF
T1 sequence (O60563 whole entry partner): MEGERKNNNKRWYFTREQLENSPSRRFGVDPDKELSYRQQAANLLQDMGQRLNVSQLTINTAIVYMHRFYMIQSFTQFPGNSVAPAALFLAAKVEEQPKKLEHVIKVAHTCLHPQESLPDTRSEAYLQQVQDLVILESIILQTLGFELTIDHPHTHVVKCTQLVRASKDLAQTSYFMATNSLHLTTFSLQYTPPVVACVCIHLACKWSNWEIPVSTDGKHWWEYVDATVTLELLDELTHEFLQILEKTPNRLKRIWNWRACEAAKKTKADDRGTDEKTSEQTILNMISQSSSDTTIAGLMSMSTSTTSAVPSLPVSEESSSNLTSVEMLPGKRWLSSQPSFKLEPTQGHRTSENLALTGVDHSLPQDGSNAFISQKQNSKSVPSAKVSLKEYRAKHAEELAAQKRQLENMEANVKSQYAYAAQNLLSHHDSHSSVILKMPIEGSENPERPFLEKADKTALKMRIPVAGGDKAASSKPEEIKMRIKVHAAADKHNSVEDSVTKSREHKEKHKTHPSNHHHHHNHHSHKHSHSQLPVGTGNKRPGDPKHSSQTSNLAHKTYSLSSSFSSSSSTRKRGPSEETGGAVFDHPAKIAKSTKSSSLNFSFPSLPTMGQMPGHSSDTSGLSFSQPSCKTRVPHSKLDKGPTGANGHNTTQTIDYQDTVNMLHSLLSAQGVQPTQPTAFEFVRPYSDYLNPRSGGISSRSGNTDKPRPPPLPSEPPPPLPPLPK
Experimental: In this study, all the newly synthesized compounds were assessed against CDK9 in a biochemical assay, and dinaciclib was used as a standard compound.
The luminescence was measured using a microplate reader. The results were analyzed using GraphPad Prism 5.0, and the kinase inhibitory activity was expressed as IC50 for three individual experiments. In the assay, dinaciclib was used as a positive control, and DMSO was used as negative control.

breast cancer (MCF7) = assay: MTT cytotoxicity assay, MCF7; type: cell-based; conditions: Homo sapiens, MCF7, 48 h, read-out: IC50 MCF7
Experimental: (§1) The in vitro cytotoxicity of our compounds was determined using MTT assay. […] The results were analyzed using GraphPad Prism 5.0, and cytotoxicity was expressed as IC50 for three individual experiments.

normal cells FHC = assay: cells; conditions: for average selectivity over three cancer cells: normal cells FHC vs MCF7, HCT116, K652; for IC50: read-out: FHC IC50
Experimental: as §1

[2] = system: colorectal cancer (HCT116); assay: cells; conditions: Homo sapiens, HCT-116, 48 h, read-out: IC50 HCT116
Experimental: as §1

[3] = system: chronic myelogenous leukaemia; assay: cells; conditions: K652, 48 h, read-out: IC50 K652
Experimental: as §1

[4] = Cytotoxicity on target cells in the antiviral assay (crystal violet)
Experimental: The results were analyzed using GraphPad Prism 5.0, and cytotoxicity was expressed as IC50 for three individual experiments. In the assay, ribavirin was used as a positive control, and DMSO was used as a negative control.

human coronavirus 229E = assay: Cytopathic effect (CPE) inhibition assay, crystal violet method; type: cell-based; conditions: read-out: IC50 (229E)
Experimental: The anti-coronaviral activity of the new compounds was assessed using a cytopathic effect (CPE) inhibition assay against human coronavirus 229E. Ribavirin (well-established antiviral agent) was used as standard in this assay.

[5] = system: MCF7, HCT116 and K652 cell lines; assay: MTT cytotoxicity assay, average of three cell lines; type: cell-based; conditions: read-out: average IC50 of three cell lines
Experimental: as §1

CDK9 [6] = molecular target: T1, CDK9; conditions: identified by virtual screening from natural resources; cited from earlier work

SMILES	IC50 (CDK9 [1]) [µM]	IC50 (breast cancer (MCF7)) [µM]	average selectivity over three cancer cells (normal cells FHC) [fold]	IC50 (normal cells FHC) [µM]	IC50 [2] [µM]	IC50 [3] [µM]	melting point [°C]	CC50 [4] [µM]	IC50 (human coronavirus 229E) [µM]	IC50 [5] [µM]	IC50 (CDK9 [6]) [µM]
CC(C)(C)Nc1c(-c2ccsc2)nc2cnccn12 [Compound 4a, N-(Tert-butyl)-2-(thiophen-3-yl)imidazo[1,2-a]pyrazin-3-amine]	0.73 ± 0.011	25.4 ± 0.32	3.5	76.1 ± 1.11	61.31 ± 0.12	12.77 ± 0.06					
c1cn2c(NC3CCCCC3)c(-c3ccsc3)nc2cn1 [Compound 4b, N-Cyclohexyl-2-(thiophen-3-yl)imidazo[1,2-a]pyrazin-3-amine]	1.32 ± 0.006	181 ± 2.63			27.9 ± 0.43	46.6 ± 0.76	170 to 172				
Oc1ccc(-c2nc3cnccn3c2NC2CCCCC2)cc1O [Compound 2b, 4-(3-(Cyclohexylamino)imidazo[1,2-a]pyrazin-2-yl)benzene-1,2-diol]	0.89 ± 0.016	119 ± 1.82			105 ± 1.78	54.2 ± 0.96					
c1cc(-c2nc3cnccn3c2NC2CCCCC2)ccn1 [Compound 3b, N-Cyclohexyl-2-(pyridin-4-yl)imidazo[1,2-a]pyrazin-3-amine]	0.41 ± 0.007	31.7 ± 0.44			8.96 ± 0.14	67.8 ± 1.08		407	57		
c1ccc(CNc2c(-c3ccsc3)nc3cnccn23)cc1 [Compound 4c, N-Benzyl-2-(thiophen-3-yl)imidazo[1,2-a]pyrazin-3-amine]	0.71 ± 0.012	55.8 ± 0.8			80.6 ± 1.26	69.2 ± 3.89					
CN[C@@H]1C[C@H]2O[C@@](C)([C@@H]1OC)n1c3ccccc3c3c4c(c5c6ccccc6n2c5c31)C(=O)NC4 [Staurosporine, reference compound]		18.4 ± 0.4									
CC(C)(C)Nc1c(-c2ccncc2)nc2cnccn12 [Compound 3a, N-(Tert-butyl)-2-(pyridin-4-yl)imidazo[1,2-a]pyrazin-3-amine]	0.26 ± 0.004	4.3 ± 0.5	41	196 ± 2.79	2.69 ± 0.04	46 ± 0.67		940	394	17.7	
COc1ccc(Nc2c(-c3ccsc3)nc3cnccn23)cc1 [Compound 4d, N-(4-Methoxyphenyl)-2-(thiophen-3-yl)imidazo[1,2-a]pyrazin-3-amine]	3.16 ± 0.058	141 ± 2.13			115 ± 1.93	87.2 ± 1.53					
c1ccc(CNc2c(-c3ccncc3)nc3cnccn23)cc1 [Compound 3c, N-Benzyl-2-(pyridin-4-yl)imidazo[1,2-a]pyrazin-3-amine]	0.16 ± 0.003	8.59 ± 0.12	15	97.2 ± 1.58	7.96 ± 0.12	4.45 ± 0.06		472	379	6.66	
Oc1ccc(-c2nc3cnccn3c2NCc2cccs2)cc1O [Compound 10]											5.12
COc1ccc(Nc2c(-c3ccncc3)nc3cnccn23)cc1 [Compound 3d, N-(4-Methoxyphenyl)-2-(pyridin-4-yl)imidazo[1,2-a]pyrazin-3-amine]	0.8 ± 0.014	118 ± 1.17			27.9 ± 1.88	46.6 ± 0.48					
Oc1ccc(-c2nc3cnccn3c2NCc2ccccc2)cc1O [Compound 2c, 4-(3-(Benzylamino)imidazo[1,2-a]pyrazin-2-yl)benzene-1,2-diol]	0.31 ± 0.006	39.7 ± 0.62			59.9 ± 1.04	88.6 ± 1.09					
CC(C)(C)Nc1c(-c2ccc(O)c(O)c2)nc2cnccn12 [Compound 2a, 4-(3-(Tert-butylamino)imidazo[1,2-a]pyrazin-2-yl)benzene-1,2-diol]	1.14 ± 0.019	76.8 ± 1.08			35.9 ± 0.56	22.8 ± 0.37	270 to 272				
NC(=O)c1ncn([C@@H]2O[C@H](CO)[C@@H](O)[C@H]2O)n1 [Ribavirin, reference compound]								160	114		
COc1ccc(Nc2c(-c3ccccc3)nc3cnccn23)cc1 [Compound 1d, N-(4-Methoxyphenyl)-2-phenylimidazo[1,2-a]pyrazin-3-amine]	1.04 ± 0.019	244 ± 3.62			75.2 ± 1.24	77.4 ± 1.34					
c1ccc(-c2nc3cnccn3c2NC2CCCCC2)cc1 [Compound 1b, N-Cyclohexyl-2-phenylimidazo[1,2-a]pyrazin-3-amine]	0.25 ± 0.004	3.01 ± 0.04	43	123 ± 19.1	1.43 ± 0.02	50.3 ± 0.8		299	146	18.2	
CC(C)(C)Nc1c(-c2ccccc2)nc2cnccn12 [Compound 1a, N-(Tert-butyl)-2-phenylimidazo[1,2-a]pyrazin-3-amine]	1.67 ± 0.025	405 ± 5.05			597 ± 8.25	310 ± 4.49				437	
c1ccc(CNc2c(-c3ccccc3)nc3cnccn23)cc1 [Compound 1c, N-Benzyl-2-phenylimidazo[1,2-a]pyrazin-3-amine]	1.01 ± 0.017	99 ± 1.39			59.3 ± 5.05	88.6 ± 8.25					
COc1ccc(Nc2c(-c3ccc(O)c(O)c3)nc3cnccn23)cc1 [Compound 2d, 4-(3-((4-Methoxyphenyl)amino)imidazo[1,2-a]pyrazin-2-yl)benzene-1,2-diol]	2.03 ± 0.04	80.4 ± 1.31			162 ± 2.41	136 ± 2.59	150 to 152			126	
